From patent publication US20250361490A1, “COMPOSITION AND METHOD FOR CRYOPRESERVATION OF MITOCHONDRIA” (cellvie AG, priority 2022, published 2025)

system: isolated mitochondria from human cardiac fibroblast (HCF) cells; experiment: Mitochondrial membrane potential assay (MitoTracker Red CMXRos / MitoTracker Green FM staining); type: cell-based; conditions: single cryoprotectant at 5%, 10%, 20% (v/v) in trehalose-based isolation buffer; frozen on dry ice, thawed 37° C.; normalized to non-frozen control
Procedure: Procedure: Isolated mitochondria in the form of pellets were resuspended in two different isolation buffers containing respectively either 300 mM sucrose or 300 mM trehalose and then frozen in 1.5 ml Eppendorf tubes by placing them either in liquid nitrogen for approximately 1 minute or on dry ice for approximately 3 minutes. For thawing, the tubes were placed in a 37° C. water bath until the entire sample was thawed, and then immediately transferred on ice.
To assess the mitochondrial membrane potential, the isolated mitochondria were resuspended either in the sucrose-containing isolation buffer or in the trehalose-containing isolation buffer at 1 mg/ml, and 15 μg of mitochondrial suspension were used for each sample. Both non-frozen mitochondria and mitochondria frozen and thawed according to procedure described under section 2.2 were stored on ice until use, e.g., stored for a period of 5 minutes to maximum 60 minutes, preferably for a few minutes (e.g., for a period of maximum 15 minutes, such as 5 minutes or 10 minutes). For Mitotracker Red CMXRos/Mitotracker Green FM staining, a labelling solution was prepared, by adding 200 nM MitoTracker Red CMxROS and 200 nM MitoTracker Green FM (Thermo Fisher) in the isolation buffer. The isolated mitochondria were then suspended in 1 ml of the labelling solution, vortexed and incubated for 15 minutes in a 37° C. incubator. Mitochondria were sedimented by centrifugation at 9500 g for 5 minutes at 4° C., washed once with the respective isolation buffer, and resuspended in the isolation buffer at a concentration of 1 mg/ml. […] MitoTracker Red or MitoTracker Green signal was quantified using Keyence BZ-800 Analyzer software, integrated brightness per image was taken for calculations and averaged between images taken from one sample.
The effect of cryoprotectant addition on maintaining integrity of the inner mitochondrial membrane was studied using MitoTracker staining assay, as described in Example 2.3. […] Alle frozen samples were thawed in a 37° C. water bath and analyzed by MitoTracker staining.

Row | Structure (SMILES) | integrity of the inner mitochondrial membrane (MitoTracker Red staining)
1 | O.O=C[C@H](O)[C@@H](O)[C@H](O)[C@H](O)CO [CRYO33, D-(+)-Glucose monohydrate] | preserve mitochondria inner membrane integrity
2 | O=C(O)[C@@H]1CCCN1 [CRYO6, L-Proline] | preserve mitochondria inner membrane integrity
3 | OC[C@H]1O[C@@](CO)(O[C@H]2O[C@H](CO)[C@@H](O)[C@H](O)[C@H]2O)[C@@H](O)[C@@H]1O [CRYO25, D-(+)-Sucrose] | preserve mitochondria inner membrane integrity
